Measured values: PMC8234031, “Modular Assembly of Phosphite Dehydrogenase and Phenylacetone Monooxygenase for Tuning Cofactor Regeneration” (Biomolecules, 2021)

Molecular target: T1, PAMOI (RIDD-tagged PAMO) (Thermobifida fusca, UniProt Q47PU3)
T1 construct: N-terminal 6xHis, C-terminal (GGGGS)x3 linker and 44-residue RIDD tag, kept; E. coli; 70 kDa; homodimer through the RIDD tag
Test: UV-Vis absorbance ratio A280/A441 of the purified protein
Assay type: binding
Conditions: co-purified flavin; ratio given for the tagged PAMO fusions together

T1 sequence (Q47PU3 whole entry): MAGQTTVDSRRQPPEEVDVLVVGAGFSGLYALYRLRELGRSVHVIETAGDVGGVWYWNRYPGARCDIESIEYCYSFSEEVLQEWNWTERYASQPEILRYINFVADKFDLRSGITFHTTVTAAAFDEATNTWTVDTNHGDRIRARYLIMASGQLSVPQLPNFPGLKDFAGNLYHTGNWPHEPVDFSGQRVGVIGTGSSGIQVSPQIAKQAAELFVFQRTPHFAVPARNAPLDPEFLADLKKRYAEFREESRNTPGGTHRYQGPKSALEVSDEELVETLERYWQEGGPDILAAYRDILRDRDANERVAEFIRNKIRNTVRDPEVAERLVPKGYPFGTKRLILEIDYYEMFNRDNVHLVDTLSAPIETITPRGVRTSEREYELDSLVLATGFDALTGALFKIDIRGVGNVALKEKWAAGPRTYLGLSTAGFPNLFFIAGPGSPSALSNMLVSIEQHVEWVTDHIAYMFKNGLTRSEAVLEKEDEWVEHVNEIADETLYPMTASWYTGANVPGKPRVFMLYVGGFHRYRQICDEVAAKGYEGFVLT

With `Cc1cc2nc3c(=O)[nH]c(=O)nc-3n(C[C@H](O)[C@H](O)[C@H](O)COP(=O)(O)OP(=O)(O)OC[C@H]3O[C@@H](n4cnc5c(N)ncnc54)[C@H](O)[C@@H]3O)c2cc1C` [FAD] the “UV-Vis absorbance ratio A280/A441 of the purified protein” value was “The tagged variants of PAMO were purified as yellow proteins”.
